Measurements from patent US11390591B2, “2,4,6-trisubstituted s-triazine compound, preparation method therefor, and use thereof” (Aluda Pharmaceuticals, Inc., priority 2016, dated 2022).
Like-named read-outs stand apart in the source and are kept apart here.

Assays:
Type in all cases: cell-based
[1] = tested on: cell lines of human non-small cell lung cancer (H522); test: In vitro antineoplastic activity, MTT experiment, H522; settings: H522 cells, 48 hours, highest concentration tested 31.6 μM (>30: inhibition rate <50%)
Description: (§1) MTT, RPM1640 culture medium, fetal bovine serum, 96-well plate, CO2 thermostatic incubator, American BIO-RAD680 microplate reader, cell lines of human non-small cell lung cancer (H522), and cell lines of human brain glioma (U87) were all obtained commercially.
(§2) (1) Cell inoculation: A single cell suspension was prepared with culture media supplemented with 10% fetal bovine serum, plated into a 96-well plate with 5000 cells per well, each well having a volume of 100 μL, and cultured overnight.
(§3) (2) Preparation of compound solutions: a DMSO stock solution of a compound was diluted on a sterile bench with a culture medium into 5 concentrations to be tested, wherein a double dilution was employed between two adjacent concentrations.
(§4) (3) The compound solutions of various concentrations were added into the 96-well plate cultured overnight, with 100 μL added per well, triplicated wells for each concentration. Since the peripheral wells can have edge effect and are susceptible to contamination, no cells or compounds were added thereto; instead, 100 μL culture solution was added as a blank. Additionally, 100% wells were set to contain the cells and 100 μL culture media without any compound. The plates were incubated in a thermostatic incubator at 37° C. for 48 hours.
(§5) (4) Staining: 10 μL MTT solution (5 mg/mL, prepared with PBS) was added into the 96-well plate for staining. After incubation for 4 hours, centrifugation was performed at 2500 rpm for 10 minutes. Then, a multiple pipette was used to suck the culture solution out of the wells carefully without sucking out the cells while the pipette tip faced downward. 150 μL DMSO was added and shaken on a shaker for 5-10 minutes. Crystals were allowed to dissolve fully, and an OD value for each well was measured using the microplate reader at 570 nm. The inhibition rate was calculated as follows: Inhibition rate (%)=(average OD value of 100% wells−average OD value of compound wells)/(average OD value of 100% wells−average OD value of blank wells)×100%

human glioma U87 cells = test: Tumor cell vacuolization (methuosis) scoring, U87; design: key to Vacuolation Score: 5 scores were given when obvious vacuolization occurred at 10 nM; 4 scores at 31.6 nM; 3 scores at 100 nM; 2 scores at 316 nM; 1 score at 1000 nM; 0 score was given if no vacuolation occurred at any concentration; settings: U87 cells, 0.01-3.160 μM, 96 hours, microscope
Description: FIG. 2. Vacuolization of tumor cells. 100 microliter culture medium (RPMI1640, 2 mmol glutamine, 10% fetal bovine serum) containing 10^3 human colon adenocarcinoma cells (HCT15) or human brain glioma cells (U87) and a solvent DMSO control or 100 nM #40 compound (L16) was plated into a 96-well cell culture plate, and cell morphological image was taken under a phase contrast microscope after cultured at 5% CO2 and 37° C. for 96 hours.
Some cells gradually became round and eventually bursted. These changes are consistent with the features of cell death by methuosis (FIG. 2).
In order to compare the ability of different compounds to cause cell vacuolization, 100 μL culture media (RPMI1640, 2 mmol glutamine, 10% fetal bovine serum) comprising 10^3 human glioma U87 cells and final concentrations of 0.01, 0.0316, 0.1, 0.316, 1.0, 3.160 μM respectively of the compounds to be tested were inoculated into a 96-well culture plate. After cultured at 5% CO2 and 37° C. for 96 hours, cell morphology was observed under a high-magnification microscope, and the ability of the compounds to cause cell vacuolization was scored. 5 scores were given when obvious vacuolization occurred at 10 nM, 4 scores at 31.6 nM, 3 scores at 100 nM, 2 scores at 316 nM, 1 score at 1000 nM, and 0 score was given if no vacuolation occurred at any concentration.

[2] = tested on: cell lines of human brain glioma (U87); test: In vitro antineoplastic activity, MTT experiment, U87
Description: as §1, §2, §3, §4, §5

[3] = U87 cells, MTT, 48 hours, highest concentration tested 31.6 μM, read-out: IC50(μM) U87
[4] = ability to inhibit cell proliferation, U87 (FIG. 3), unit inferred, read-out: IC50

SMILES	IC50 [1] [µM]	Vacuolation Score (human glioma U87 cells)	IC50 [2, 3] [µM]	IC50 [2, 4] [µM]
CN1CCN(c2nc(/C=C/c3ccccc3)nc(Nc3ccc(NC(=O)Nc4ccc(Cl)cc4)cc3)n2)CC1 [L3, (E)-1-(4-chlorophenyl)-3-(4-(4-(4-methylpiperazin-1-yl)-6-styrenyl-1,3,5-triazinyl-2-amino)phenyl)urea]	> 30	0	10.6 ± 1.2	> 10
CN1CCN(c2nc(/C=C/c3cccc([N+](=O)[O-])c3)nc(Nc3cccc(NC(=O)Nc4ccc(Cl)cc4)c3)n2)CC1 [L28, (E)-1-(4-chlorophenyl)-3-(3-(4-(4-methylpiperazin-1-yl)-6-(3-nitrostyrenyl)-1,3,5-triazinyl-2-amino)phenyl)urea]	1.53 ± 0.22	0	1.49 ± 0.22	1.5
CN1CCN(c2nc(/C=C/c3ccc(Cl)cc3)nc(Nc3ccc(NC(=O)Nc4cccc(F)c4)cc3)n2)CC1 [L15, (E)-1-(3-fluorophenyl)-3-(4-(4-(4-methylpiperazin-1-yl)-6-(4-chlorostyrenyl)-1,3,5-triazinyl-2-amino)phenyl)urea]	4.26 ± 0.1	0	2.92 ± 0.21	2.91
O=C(Nc1ccc(Nc2nc(/C=C/c3ccc(Cl)cc3)nc(N3CCOCC3)n2)cc1)Nc1cccc(F)c1 [L12, (E)-1-(3-fluorophenyl)-3-(4-(4-(morpholin-1-yl)-6-(4-chlorostyrenyl)-1,3,5-triazinyl-2-amino)phenyl)urea]	2.55 ± 0.12	2 (2 scores at 316 nM)	4.41 ± 0.43	4.43
CN1CCN(c2nc(/C=C/c3cccc(Cl)c3)nc(Nc3ccc(NC(=O)Nc4ccc(Cl)cc4)cc3)n2)CC1 [L8, (E)-1-(4-chlorophenyl)-3-(4-(4-(4-methylpiperazin-1-yl)-6-(3-chlorostyrenyl)-1,3,5-triazinyl-2-amino)phenyl)urea]	1.82 ± 0.09	0	1.21 ± 0.16	1.21
CN(C)CCCNC(=O)c1ccc(NC(=O)Nc2ccc(Nc3nc(/C=C/c4ccccc4)nc(N4CCOCC4)n3)cc2)cc1 [L34, (E)-N-(3-(dimethylamino)propyl)-4-(3-(4-(4-(morpholin-1-yl)-6-styrenyl-1,3,5-triazinyl-2-amino)phenyl)urea)benzamide]	4.91 ± 0.1	3.5	2.31 ± 0.29	3
O=C(Nc1ccc(Nc2nc(/C=C/c3ccccc3)nc(N3CCOCC3)n2)cc1)Nc1ccc(C(=O)NCCN2CCCC2)cc1 [L35, (E)-N-(2-(pyrrolidin-1-yl)ethyl)-4-(3-(4-(4-(morpholin-1-yl)-6-styrenyl-1,3,5-triazinyl-2-amino)phenyl)urea)benzamide]	4.14 ± 0.13	1 (1 score at 1000 nM)	1.43 ± 0.1	2.1
CN1CCN(c2nc(/C=C/c3ccc(Cl)cc3)nc(Nc3ccc(NC(=O)Nc4ccc(F)cc4)cc3)n2)CC1 [L14, (E)-1-(4-fluorophenyl)-3-(4-(4-(4-methylpiperazin-1-yl)-6-(4-chlorostyrenyl)-1,3,5-triazinyl-2-amino)phenyl)urea]	5.03 ± 0.49	0	2.48 ± 0.11	2.48
O=C(Nc1ccc(Cl)cc1)Nc1ccc(Nc2nc(/C=C/c3cccc([N+](=O)[O-])c3)nc(N3CC(O)C3)n2)cc1 [L22, (E)-1-(4-chlorophenyl)-3-(4-(4-(3-hydroxyazetidin-1-yl)-6-(3-nitrostyrenyl)-1,3,5-triazinyl-2-amino)phenyl)urea]	1.27 ± 0.08	0	1.32 ± 0.22	1.33
O=C(Nc1ccc(Cl)cc1)Nc1cccc(Nc2nc(/C=C/c3cccc([N+](=O)[O-])c3)nc(N3CCOCC3)n2)c1 [L27, (E)-1-(4-chlorophenyl)-3-(3-(4-(morpholin-1-yl)-6-(3-nitrostyrenyl)-1,3,5-triazinyl-2-amino)phenyl)urea]	2.21 ± 0.33	0	3.66 ± 0.55	3.66
CC1CCN(C(=O)c2ccc(NC(=O)Nc3ccc(Nc4nc(/C=C/c5ccccc5)nc(N5CCOCC5)n4)cc3)cc2)CC1 [L30, (E)-1-(4-((4-methylpiperidin-1-yl)formyl)phenyl)-3-(4-(4-(morpholin-1-yl)-6-styrenyl-1,3,5-triazinyl-2-amino)phenyl)urea]	5.24 ± 1.33	0	0.87 ± 0.08	0.9
O=C(Nc1ccc(F)cc1)Nc1ccc(Nc2nc(/C=C/c3ccccc3)nc(N3CCOCC3)n2)cc1 [L2, (E)-1-(4-fluorophenyl)-3-(4-(4-(morpholin-1-yl)-6-styrenyl-1,3,5-triazinyl-2-amino)phenyl)urea]	2.8 ± 0.21	4.5	4.75 ± 0.87	4.74
CN(C)C(=O)c1ccc(NC(=O)Nc2ccc(Nc3nc(/C=C/c4ccccc4)nc(N4CCOCC4)n3)cc2)cc1 [L29, (E)-N,N-dimethyl-4-(3-(4-(4-(morpholin-1-yl)-6-styrenyl-1,3,5-triazinyl-2-amino)phenyl)urea)benzamide]	6.51 ± 0.94	3.5	0.53 ± 0.02	0.75
CN1CCN(c2nc(/C=C/c3ccccc3)nc(Nc3cccc(NC(=O)Nc4ccc(Cl)cc4)c3)n2)CC1 [L24, (E)-1-(4-chlorophenyl)-3-(3-(4-(4-methylpiperazin-1-yl)-6-styrenyl-1,3,5-triazinyl-2-amino)phenyl)urea]	4.03 ± 0.65	0	4.4 ± 0.88	4.4
CN1CCN(c2nc(/C=C/c3cccc([N+](=O)[O-])c3)nc(Nc3ccc(NC(=O)Nc4ccc(F)cc4)cc3)n2)CC1 [L19, (E)-1-(4-fluorophenyl)-3-(4-(4-(4-methylpiperazin-1-yl)-6-(3-nitrostyrenyl)-1,3,5-triazinyl-2-amino)phenyl)urea]	1.34 ± 0.22	0	1.62 ± 0.09	1.8
CN1CCN(c2nc(/C=C/c3cccc([N+](=O)[O-])c3)nc(Nc3ccc(NC(=O)Nc4ccc(Cl)cc4)cc3)n2)CC1 [L18, (E)-1-(4-chlorophenyl)-3-(4-(4-(4-methylpiperazin-1-yl)-6-(3-nitrostyrenyl)-1,3,5-triazinyl-2-amino)phenyl)urea]	2.31 ± 0.17	0	1.21 ± 0.07	1.21
CN1CCN(c2nc(/C=C/c3ccccc3)nc(Nc3ccc(NC(=O)Nc4ccc(F)cc4)cc3)n2)CC1 [L4, (E)-1-(4-fluorophenyl)-3-(4-(4-(4-methylpiperazin-1-yl)-6-styrenyl-1,3,5-triazinyl-2-amino)phenyl)urea]	1.92 ± 0.19	0	1.19 ± 0.07	1.19
O=C(Nc1ccc(Nc2nc(/C=C/c3ccccc3)nc(N3CCOCC3)n2)cc1)Nc1ccc(C(=O)NCCN2CCCCC2)cc1 [L36, (E)-N-(2-(piperidin-1-yl)ethyl)-4-(3-(4-(4-(morpholin-1-yl)-6-styrenyl-1,3,5-triazinyl-2-amino)phenyl)urea)benzamide]	3.69 ± 0.44	1 (1 score at 1000 nM)	1.11 ± 0.06	1.25
